Experiments:
[1] = target: BMP-2-inducible protein kinase (Homo sapiens, UniProt Q9NSY1); test: Binding affinity to BIKE (unknown origin) assessed as dissociation constant
[2] = system: Zika virus; test: Antiviral activity against ZIKV infected in human SNB-19 cells; assay type: functional, organism-based
[3] = target: Cyclin-dependent kinase 2 (Homo sapiens, UniProt P24941); test: Inhibition of CDK2 (unknown origin)
[4] = target: AP2-associated protein kinase 1 (Homo sapiens, UniProt Q2M2I8); test: Binding affinity to AAK1 (unknown origin) assessed as dissociation constant
AP2-associated protein kinase 1, sequence (Q2M2I8 whole entry): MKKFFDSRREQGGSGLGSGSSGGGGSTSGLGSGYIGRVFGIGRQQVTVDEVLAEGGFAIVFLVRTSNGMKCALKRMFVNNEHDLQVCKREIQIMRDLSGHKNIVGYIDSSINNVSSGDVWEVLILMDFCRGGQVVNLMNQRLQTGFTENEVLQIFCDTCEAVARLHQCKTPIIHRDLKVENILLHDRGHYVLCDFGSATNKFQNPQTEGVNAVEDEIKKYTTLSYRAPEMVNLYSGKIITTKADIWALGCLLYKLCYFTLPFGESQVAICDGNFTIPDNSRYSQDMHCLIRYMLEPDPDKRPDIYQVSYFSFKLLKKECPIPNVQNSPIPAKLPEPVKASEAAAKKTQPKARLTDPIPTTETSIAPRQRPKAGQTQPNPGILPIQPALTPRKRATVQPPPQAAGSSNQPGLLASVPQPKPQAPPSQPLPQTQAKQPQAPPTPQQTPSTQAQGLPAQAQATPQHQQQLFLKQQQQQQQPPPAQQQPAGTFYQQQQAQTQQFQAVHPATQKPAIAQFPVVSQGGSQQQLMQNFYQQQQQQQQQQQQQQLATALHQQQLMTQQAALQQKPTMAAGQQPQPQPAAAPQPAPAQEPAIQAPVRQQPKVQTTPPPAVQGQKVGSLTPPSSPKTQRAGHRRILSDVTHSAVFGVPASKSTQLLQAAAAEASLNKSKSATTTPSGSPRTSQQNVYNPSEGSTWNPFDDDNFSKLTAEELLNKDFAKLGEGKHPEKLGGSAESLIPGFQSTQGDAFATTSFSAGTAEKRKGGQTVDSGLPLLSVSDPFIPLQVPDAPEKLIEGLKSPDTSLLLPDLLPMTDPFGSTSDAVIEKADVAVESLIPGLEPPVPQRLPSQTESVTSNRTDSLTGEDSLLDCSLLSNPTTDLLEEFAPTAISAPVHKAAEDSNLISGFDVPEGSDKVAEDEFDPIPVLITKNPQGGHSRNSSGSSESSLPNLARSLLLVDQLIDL

[5] = target: Cyclin-G-associated kinase (Homo sapiens, UniProt O14976); test: Binding affinity to GAK (unknown origin) assessed as dissociation constant
[6] = system: Human alphaherpesvirus 1; test: Antiviral activity against HSV-1 infected in African green monkey Vero cells assessed as inhibition of viral replication; assay type: functional, organism-based; settings: Human alphaherpesvirus 1, Vero
[7] = system: dengue virus type 2; test: Antiviral activity against DENV 2 infected in african green monkey Vero cells assessed as focus formation measured after 6 days; assay type: functional, organism-based; settings: 144 h
[8] = target: Tyrosine-protein kinase ABL1 (Homo sapiens, UniProt P00519)
[9] = system: dengue virus type 4; test: Antiviral activity against DENV 4 infected in african green monkey Vero cells assessed as focus formation measured after 6 days; assay type: functional, organism-based; settings: 144 h
[10] = system: dengue virus type 3; test: Antiviral activity against DENV 3 infected in african green monkey Vero cells assessed as focus formation measured after 6 days; assay type: functional, organism-based; settings: 144 h
[11] = system: dengue virus type 1; test: Antiviral activity against DENV 1 infected in hamster BHK-21 cells assessed as focus formation measured after 5 days; assay type: functional, organism-based; settings: BHK-21, 120 h
[12] = target: 1-phosphatidylinositol 3-phosphate 5-kinase (Homo sapiens, UniProt Q9Y2I7); test: Inhibition of PIKFYVE (unknown origin)
1-phosphatidylinositol 3-phosphate 5-kinase, sequence (Q9Y2I7 whole entry): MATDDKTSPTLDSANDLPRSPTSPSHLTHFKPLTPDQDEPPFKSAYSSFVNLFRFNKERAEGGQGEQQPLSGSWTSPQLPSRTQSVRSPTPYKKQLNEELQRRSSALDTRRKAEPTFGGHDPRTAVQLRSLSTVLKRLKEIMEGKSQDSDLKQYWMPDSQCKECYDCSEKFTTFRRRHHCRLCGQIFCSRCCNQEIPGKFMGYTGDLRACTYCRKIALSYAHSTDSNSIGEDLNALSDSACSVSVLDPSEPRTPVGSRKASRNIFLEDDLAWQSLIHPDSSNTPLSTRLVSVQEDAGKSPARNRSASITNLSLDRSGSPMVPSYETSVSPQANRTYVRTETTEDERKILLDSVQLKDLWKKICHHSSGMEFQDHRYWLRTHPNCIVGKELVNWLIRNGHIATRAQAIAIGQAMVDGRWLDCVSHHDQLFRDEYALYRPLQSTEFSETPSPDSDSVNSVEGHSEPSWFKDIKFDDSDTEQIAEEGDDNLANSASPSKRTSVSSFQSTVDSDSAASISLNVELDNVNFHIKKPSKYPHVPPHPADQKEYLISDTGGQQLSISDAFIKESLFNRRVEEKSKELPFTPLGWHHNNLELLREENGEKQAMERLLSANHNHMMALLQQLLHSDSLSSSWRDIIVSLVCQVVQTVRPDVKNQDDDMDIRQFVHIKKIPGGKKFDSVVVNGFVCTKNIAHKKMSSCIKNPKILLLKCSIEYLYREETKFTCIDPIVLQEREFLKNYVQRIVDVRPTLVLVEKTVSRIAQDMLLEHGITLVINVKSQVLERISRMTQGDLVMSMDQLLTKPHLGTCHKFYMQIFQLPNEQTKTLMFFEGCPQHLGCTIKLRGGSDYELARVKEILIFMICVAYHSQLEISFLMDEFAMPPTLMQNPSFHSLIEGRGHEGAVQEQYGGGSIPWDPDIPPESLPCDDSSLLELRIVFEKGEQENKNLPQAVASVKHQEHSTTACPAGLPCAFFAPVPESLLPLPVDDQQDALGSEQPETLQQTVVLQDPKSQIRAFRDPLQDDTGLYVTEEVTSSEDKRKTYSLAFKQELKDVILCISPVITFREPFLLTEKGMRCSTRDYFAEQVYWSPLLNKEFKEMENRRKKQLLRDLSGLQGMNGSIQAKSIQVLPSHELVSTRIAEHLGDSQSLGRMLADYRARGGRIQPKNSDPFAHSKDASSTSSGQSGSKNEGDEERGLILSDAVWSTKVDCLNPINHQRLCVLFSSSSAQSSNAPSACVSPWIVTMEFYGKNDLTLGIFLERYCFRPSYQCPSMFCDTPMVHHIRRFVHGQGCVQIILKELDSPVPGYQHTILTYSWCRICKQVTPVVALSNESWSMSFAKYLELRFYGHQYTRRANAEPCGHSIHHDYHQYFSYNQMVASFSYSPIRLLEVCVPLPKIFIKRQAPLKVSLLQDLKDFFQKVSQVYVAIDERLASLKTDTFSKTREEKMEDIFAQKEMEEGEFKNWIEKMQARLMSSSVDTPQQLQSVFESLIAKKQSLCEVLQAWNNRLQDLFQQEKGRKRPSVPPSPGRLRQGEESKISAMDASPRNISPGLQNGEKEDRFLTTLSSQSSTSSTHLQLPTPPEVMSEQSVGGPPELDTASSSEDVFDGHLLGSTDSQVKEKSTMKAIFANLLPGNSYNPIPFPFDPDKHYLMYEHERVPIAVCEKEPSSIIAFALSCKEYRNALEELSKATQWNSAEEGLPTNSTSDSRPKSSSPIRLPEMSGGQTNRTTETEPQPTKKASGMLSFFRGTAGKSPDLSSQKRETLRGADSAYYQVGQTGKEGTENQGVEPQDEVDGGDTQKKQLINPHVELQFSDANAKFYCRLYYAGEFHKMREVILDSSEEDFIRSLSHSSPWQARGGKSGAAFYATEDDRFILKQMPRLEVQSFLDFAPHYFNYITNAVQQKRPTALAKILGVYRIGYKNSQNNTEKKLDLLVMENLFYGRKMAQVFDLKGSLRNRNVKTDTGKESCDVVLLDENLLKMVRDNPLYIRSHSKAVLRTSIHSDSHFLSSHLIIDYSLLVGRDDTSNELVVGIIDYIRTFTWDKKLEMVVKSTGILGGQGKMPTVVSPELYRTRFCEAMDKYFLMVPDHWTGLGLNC

[13] = Cytotoxicity against human […] cells; assay type: toxicity, cell-based; settings: U2OS cells
[14] = system: SARS-CoV-2; test: Antiviral activity against SARS-CoV-2 infected in african green monkey Vero cells incubated for 72 hrs by celltitre-glo luminescent assay; assay type: functional, organism-based; settings: Severe acute respiratory syndrome coronavirus 2, Vero
[15] = Cytotoxicity against african green monkey Vero cells; assay type: toxicity, cell-based; settings: chlorocebus sabaeus
[16] = system: Human immunodeficiency virus 1; test: Antiviral activity against HIV-1 in U87/CD4/CCR5 cells expressing HIV-1-envelope-protein assessed as decreased cell-cell fusion at 300 nM; assay type: functional; parameters: scale not given: the % may be the effect or the level left
[17] = Binding affinity to AMPK (unknown origin); parameters: species or system Homo sapiens
[18] = system: SARS-CoV; test: microbe, parasite or virus in culture; settings: Severe acute respiratory syndrome-related coronavirus, Vero C1008, 50 h
[19] = system: Influenza A virus; test: Antiviral activity against Influenza A virus (A/WSN/33 (H1N1)); assay type: functional, organism-based
[20] = system: Influenza A virus; test: Antiviral activity against Influenza A virus A/Equine/2/MIAMI/1/63 (H3N8)); assay type: functional, organism-based
[21] = system: Influenza A virus; test: Antiviral activity against Influenza A virus (A/Udorn/72 (H3N2)); assay type: functional, organism-based
[22] = system: Influenza B virus; test: Antiviral activity against Influenza B virus B/MD/59; assay type: functional, organism-based
[23] = system: Influenza B virus; test: Antiviral activity against Influenza B virus B/Lee/40; assay type: functional, organism-based
[24] = system: Parainfluenza virus 5; test: Antiviral activity against PIV5; assay type: functional, organism-based
[25] = system: Influenza A virus; test: Antiviral activity against Influenza A virus (A/PR/8/34 (H1N1)); assay type: functional, organism-based
[26] = system: Middle East respiratory syndrome-related coronavirus; test: microbe, parasite or virus in culture; settings: Vero
[27] = system: Middle East respiratory syndrome-related coronavirus; test: Antiviral activity against MERS-CoV infected in human HUh-7 cells at 0.1 to 10 uM; assay type: functional; settings: dose 0.1-10 µM
[28] = Inhibition of PDGFR (unknown origin); parameters: species or system Homo sapiens
[29] = target: High affinity nerve growth factor receptor (Homo sapiens, UniProt P04629); test: Inhibition of TrKA (unknown origin)
High affinity nerve growth factor receptor, sequence (P04629 whole entry): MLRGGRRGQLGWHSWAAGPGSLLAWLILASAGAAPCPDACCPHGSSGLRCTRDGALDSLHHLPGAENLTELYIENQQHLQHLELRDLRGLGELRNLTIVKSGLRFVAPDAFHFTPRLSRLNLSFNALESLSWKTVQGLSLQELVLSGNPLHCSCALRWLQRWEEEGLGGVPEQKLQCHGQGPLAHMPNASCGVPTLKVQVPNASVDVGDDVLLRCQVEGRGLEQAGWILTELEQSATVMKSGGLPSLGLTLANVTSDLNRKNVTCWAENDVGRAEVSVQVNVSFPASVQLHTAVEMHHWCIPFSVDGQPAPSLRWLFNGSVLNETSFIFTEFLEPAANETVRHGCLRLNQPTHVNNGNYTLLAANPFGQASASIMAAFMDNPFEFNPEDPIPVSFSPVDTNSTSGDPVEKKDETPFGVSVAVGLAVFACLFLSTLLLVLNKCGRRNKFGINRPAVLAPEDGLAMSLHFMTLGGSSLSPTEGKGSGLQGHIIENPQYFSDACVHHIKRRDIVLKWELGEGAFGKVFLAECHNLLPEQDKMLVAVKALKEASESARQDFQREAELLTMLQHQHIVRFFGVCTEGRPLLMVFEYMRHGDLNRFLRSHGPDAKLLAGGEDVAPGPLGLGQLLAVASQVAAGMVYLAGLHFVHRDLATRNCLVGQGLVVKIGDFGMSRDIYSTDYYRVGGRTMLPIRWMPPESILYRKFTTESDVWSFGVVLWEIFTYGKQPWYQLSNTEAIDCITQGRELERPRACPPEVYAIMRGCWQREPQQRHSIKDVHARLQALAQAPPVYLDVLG

[30] = Inhibition of MEK (unknown origin); parameters: species or system Homo sapiens
[31] = target: Dual specificity mitogen-activated protein kinase kinase 1 (Homo sapiens, UniProt Q02750)
Dual specificity mitogen-activated protein kinase kinase 1, sequence (Q02750 whole entry): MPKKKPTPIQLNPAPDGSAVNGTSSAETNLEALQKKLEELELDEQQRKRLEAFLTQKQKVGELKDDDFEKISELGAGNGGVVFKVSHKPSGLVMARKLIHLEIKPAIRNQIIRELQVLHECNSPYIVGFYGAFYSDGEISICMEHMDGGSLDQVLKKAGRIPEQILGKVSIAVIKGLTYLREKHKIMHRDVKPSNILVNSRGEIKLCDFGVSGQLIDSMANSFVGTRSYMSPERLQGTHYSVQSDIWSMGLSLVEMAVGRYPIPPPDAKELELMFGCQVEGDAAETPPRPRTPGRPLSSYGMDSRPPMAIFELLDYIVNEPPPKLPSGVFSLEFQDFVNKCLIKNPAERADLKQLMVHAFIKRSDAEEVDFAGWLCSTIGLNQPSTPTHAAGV

Work on `COc1cc(O)c2c(c1)/C=C/C[C@H](O)[C@H](O)C(=O)/C=C\C[C@H](C)OC2=O` yielded a Kd [1] of 0.0038 µM.
In the case of `CC(=O)Nc1ccc(C(C)C(=O)Nc2ncc(C(C)C)s2)cc1` (configuration not stated), the IC50 [2] is reported as 1.72 µM and the IC50 [3] is reported as 0.031 µM.
With `COc1ccc(-c2cnc3[nH]cc(C#Cc4cccnc4)c3c2)cc1OC` the Kd [4] was 0.004 µM.
`CC(C)C(=O)Nc1n[nH]c2cc(-c3cccc(NS(=O)(=O)C4CC4)c3)ccc12` showed a Kd [4] of 18 µM.
`COc1cc(N(C)c2ccnc3ccc(C(F)(F)F)cc23)cc(OC)c1OC` showed a Kd [5] of 2.5 µM.
For `Fc1ccc(N2CCCCC2)c(NC(=S)c2ccncc2)c1`, the EC50 [6] was 0.69 µM.
`CC(=O)c1cccc(-c2cc(Nc3ccc(OC(F)(F)F)cc3)ncn2)c1` showed an IC50 [7] of 5 µM, an IC50 [8] of 0.138 µM and an IC50 [9] of 5 µM. For the same compound, the IC50 [10] was 5 µM and the IC50 [11] was 5 µM.
`COc1ccccc1-c1cnc2ccc(N3CC[C@H](N(C)C(=O)C(C)C)C3)nn12` gave a Kd [4] of 0.001 µM.
`Ic1cccc(/C=N/Nc2nc(N3CCOCC3)nc(N(c3ccccc3)c3ccccc3)n2)c1` gave an IC50 [12] of 0.009 µM.
In the case of `COc1ccccc1-c1cnc2ccc(N3CC[C@H](N(C)C(=O)C(C)(C)C)C3)nn12`, the Kd [4] is reported as 0.001 µM.
With `C1=Nc2ccccc2/C1=C/NNc1nc(Nc2ccccc2)nc(N2CCOCC2)n1` the IC50 [13] was 0.014 µM.
With `CCN1CCN(Cc2ccc(Nc3ncc(F)c(-c4cc(F)c5nc(C)n(C(C)C)c5c4)n3)nc2)CC1` [ABEMACICLIB] the IC50 [14] was 6600 µM and the CC50 [15] was over 50 µM.
With `Cc1nc(Nc2ncc(C(=O)Nc3c(C)cccc3Cl)s2)cc(N2CCN(CCO)CC2)n1.O` [DASATINIB] the Activity [16] was 93%.
For `c1cc(-c2cnn3cc(-c4ccc(OCCN5CCCCC5)cc4)cnc23)ccn1` [DORSOMORPHIN], the IC50 [17] was 0.109 µM.
Work on `Cc1ccc(NC(=O)c2ccc(CN3CCN(C)CC3)cc2)cc1Nc1nccc(-c2cccnc2)n1` [IMATINIB] yielded an EC50 [18] of 2.1 µM.
Compound `Cc1cn(-c2cc(NC(=O)c3ccc(C)c(Nc4nccc(-c5cccnc5)n4)c3)cc(C(F)(F)F)c2)cn1` [NILOTINIB] has an EC50 [18] of 2.1 µM.
With `COc1ccc(Cc2nccc3cc(OC)c(OC)cc23)cc1OC` [PAPAVERINE] the IC50 [19] was 2 µM, the IC50 [20] was 2 µM and the IC50 [21] was 2 µM. The IC50 [22] was 2 µM, the IC50 [23] was 2 µM and the IC50 [24] was 2 µM. For the same compound, the IC50 [25] was 2 µM.
Compound `CN1CCN(CCOc2cc(OC3CCOCC3)c3c(Nc4c(Cl)ccc5c4OCO5)ncnc3c2)CC1` [SARACATINIB] has an EC50 [26] of 2.9 µM.
In the case of `Cn1cnc2c(F)c(Nc3ccc(Br)cc3Cl)c(C(=O)NOCCO)cc21` [SELUMETINIB], the Activity [27] is reported as over 95%.
`CNC(=O)c1cc(Oc2ccc(NC(=O)Nc3ccc(Cl)c(C(F)(F)F)c3)cc2)ccn1` [SORAFENIB] gave an IC50 [28] of 0.02 µM.
For `CC(=O)Nc1cccc(-n2c(=O)n(C3CC3)c(=O)c3c(Nc4ccc(I)cc4F)n(C)c(=O)c(C)c32)c1` [TRAMETINIB], the Activity [27] was over 95%.
`CC(C)(C)c1cc(C=C(C#N)C#N)cc(C(C)(C)C)c1O` [TYRPHOSTIN A9] gave an IC50 [28] of 0.5 µM.
Work on `CC(C)(C)c1cc(/C=C(\C#N)C(N)=S)cc(C(C)(C)C)c1O` [TYRPHOSTIN AG 879] yielded an IC50 [29] of 10 µM.
In the case of `O=C(O)c1ccc(F)c(F)c1Nc1ccc(I)cc1Cl` [ZAPNOMETINIB], the IC50 [30] is reported as 0.00573 µM and the IC50 [31] is reported as 0.00573 µM.
